Structures can show the parent of a compound that is named as a salt.
How the values were obtained:
Format in all cases: in vivo, human
[1] = tested on: inflamed site of the nasal mucosa; assay: ALA-PDD: PpIX accumulation in the nasal mucosa after oral ALA hydrochloride; settings: 3 subject volunteers with allergic rhinitis; 20 mg/kg oral; 408 nm violet light after about 6 hours
Experimental: (§1) To 3 subject volunteers with allergic rhinitis, 20 mg/kg of ALA hydrochloride was orally administered, and violet light of 408 nm was irradiated into the nasal cavity after about 6 hours using a bronchoscope enabling fluorescence observation (SAFE-3000 from Pentax) to perform ALA-PDD. […] The light of a red LED (light emitting diode) (FIG. 2) having a wavelength of 635 nm was irradiated on the inflamed site of the nasal mucosa until the red fluorescence could not be visually observed (FIG. 3). More specifically, the red LED light having a wavelength of 635 nm was irradiated for a certain period, followed by discontinuing the PDT irradiation; a bronchoscope (SAFE-3000 from Pentax) was inserted into the nasal cavity by interchanging with the irradiation device; and after observing red light, the PDT irradiation was again performed.

[2] = tested on: allergic rhinitis due to pollinosis; assay: ALA-PDT with 635 nm red semiconductor laser after ALA hydrochloride in applied liquid form (transdermal, nasal cavity), subjects with pollinosis; settings: 5% by weight in saline on cotton in the nasal cavity for 1 hour, 100 J of 635 nm laser for 6 minutes
Experimental: Then, it was examined whether or not, even when the ALA hydrochloride was administered in an applied liquid form, it could treat allergic rhinitis. A saline solution comprising 5% by weight of ALA hydrochloride sufficiently soaked in cotton was applied to the nasal cavity of 4 adult male subjects with pollinosis, and the soaked cotton was left in place for 1 hour before being removed. 100 J of red semiconductor laser light having a wavelength of 635 nm was intranasally irradiated for 6 minutes immediately after removing the soaked cotton on 3 of the subjects and 1 hour after removing the soaked cotton on the remaining 1 subject. As a result, symptoms of a severe runny nose and sneezing due to pollinosis of the 4 subjects disappeared for the 1 subject irradiated 1 hour thereafter and abated for the 3 subjects irradiated immediately thereafter. […] In addition, the treatment by the liquid form application is shown to be more excellent treatment than that by oral administration in view of cost effectiveness and time effectiveness because the direct application of an ALA hydrochloride solution around an inflamed site of the nasal mucosa can more decrease the amount of ALA hydrochloride administered than oral administration and PpIX accumulates in a short time in the inflamed site of the nasal mucosa.

allergic rhinitis = assay: ALA-PDT with 635 nm red LED on the inflamed site after oral ALA hydrochloride, subjects with allergic rhinitis; settings: 3 subjects; 20 mg/kg oral; 635 nm red LED until red fluorescence no longer visible
Experimental: as §1

[3] = tested on: allergic rhinitis due to pollinosis; assay: ALA-PDT with 635 nm red semiconductor laser into the entire nasal cavity after oral ALA hydrochloride, subjects with pollinosis; settings: 20 mg/kg oral
Experimental: To a total 12 subjects with pollinosis, 7 adult males and 5 adult females, 20 mg/kg of ALA hydrochloride was orally administered, and 6 hours later, 100 J of red semiconductor laser light having a wavelength of 635 nm was irradiated into the nasal cavity for 6 minutes. As a result, symptoms of a severe runny nose and sneezing due to pollinosis of the 12 subjects disappeared ([…]) or abated (5 subjects), and these effects were maintained until at least 1 year after the irradiation.

[4] = of 12 subjects with pollinosis, 6 hours later 100 J of 635 nm laser for 6 minutes

With `NCC(=O)CCC(=O)O` [ALA hydrochloride, 5-aminolevulinic acid] the “inflamed site of the nasal mucosa by which PpIX was taken up (ALA-PDD fluorescence)” value [1] was “detected as red fluorescence”, the “symptoms of a severe runny nose and sneezing, irradiated 1 hour after removing the soaked cotton” value ([2]; 1 subject) was “disappeared” and the “symptoms of a severe runny nose and sneezing, irradiated immediately after removing the soaked cotton” value ([2]; 3 subjects) was “abated”. For the same compound, the “course of symptoms of runny nose and sneezing thereafter” value (allergic rhinitis) was “abated over several weeks”, the “symptoms of a severe runny nose and sneezing until several days after the irradiation” value (allergic rhinitis) was “observed in the 3 subjects” and the “time for which the effects were maintained after the irradiation” value ([3]; 12 subjects with pollinosis, 100 J of 635 nm laser for 6 minutes) was “at least 1 year”. For the same compound, the “subjects whose symptoms of a severe runny nose and sneezing abated” value [3, 4] was 5 subjects and the “subjects whose symptoms of a severe runny nose and sneezing disappeared” value [3, 4] was 3 subjects.
